The record followed here is ChEMBL document CHEMBL4828731, “Synthesis, structure-activity relationships and molecular docking studies of phenyldiazenyl sulfonamides as aromatase inhibitors” (Eur J Med Chem, 2021).

Data set [1] has as its target T1, Aromatase (Homo sapiens, UniProt P11511).
T1 sequence (P11511 whole entry): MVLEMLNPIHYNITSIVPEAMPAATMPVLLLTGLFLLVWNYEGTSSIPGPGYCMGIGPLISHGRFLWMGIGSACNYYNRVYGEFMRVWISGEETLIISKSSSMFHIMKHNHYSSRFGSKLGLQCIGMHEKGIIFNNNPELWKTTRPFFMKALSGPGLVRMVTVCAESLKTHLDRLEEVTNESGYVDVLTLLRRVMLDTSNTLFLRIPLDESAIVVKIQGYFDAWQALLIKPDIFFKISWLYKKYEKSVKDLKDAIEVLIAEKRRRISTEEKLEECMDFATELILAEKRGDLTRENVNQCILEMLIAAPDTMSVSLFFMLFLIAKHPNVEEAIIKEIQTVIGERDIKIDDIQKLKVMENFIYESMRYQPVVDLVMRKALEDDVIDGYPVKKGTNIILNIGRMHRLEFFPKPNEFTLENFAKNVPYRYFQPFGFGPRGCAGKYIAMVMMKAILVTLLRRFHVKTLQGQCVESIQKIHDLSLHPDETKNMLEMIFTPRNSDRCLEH
The experiment in a line: Inhibition of human aromatase assessed as reduction in fluorescence intensity using 7-methoxy-4-trifluoromethyl coumarin as a substrate at 1 uM by fluorimetric assay relative to control.

Data set [2] addresses T1, Aromatase. The experiment in a line: Inhibition of human aromatase assessed as reduction in fluorescence intensity using 7-methoxy-4-trifluoromethyl coumarin as a substrate by fluorimetric assay.
For data set [3], the target named is T1, Aromatase. The experiment in a line: Potency index, ratio of resveratrol IC50 to test compound IC50 for Inhibition of human aromatase assessed as reduction in fluorescence intensity using 7-methoxy-4-trifluoromethyl coumarin as a substrate by fluorimetric assay.
Data set [4] deals with MCF7. The experiment in a line: Cytotoxicity against human MCF7 cells assessed as reduction in cell metabolic activity up to 50 uM incubated for 24 hrs by MTT assay relative to control. The format is functional. On the set-up: scale not given: the % may be the effect or the level left. Particulars: dose microM <=50. (In general: Tetrazolium assays rely on reduction of a dye to a coloured formazan, in cell work by metabolically active cells.)

The subject of data set [5] is MCF7. The experiment in a line: Cytotoxicity against human MCF7 cells assessed as release of LDH up to 250 uM measured after 24 hrs by lactate dehydrogenase assay. The class given is functional, cell-based. Particulars: dose microM <=250, time 24.0 hrs.
Data set [6] deals with MCF7. The experiment in a line: Cytotoxicity against human MCF7 cells assessed as reduction in cell metabolic activity up to 50 uM incubated for 48 hrs by MTT assay relative to control. The format is functional. On the set-up: scale not given: the % may be the effect or the level left. Particulars: dose microM <=50.
Data set [7] concerns MCF7. The experiment in a line: Cytotoxicity against human MCF7 cells assessed as reduction in cell metabolic activity at 250 uM incubated for 72 hrs by MTT assay relative to control. Further details: scale not given: the % may be the effect or the level left. The class given is functional.
Data set [8] deals with HFF-1. The experiment in a line: Cytotoxicity against human HFF-1 clls assessed as reduction in cell viability at 10 to 100 uM measured after 72 hrs by MTT assay. The following applies: hff-1, 72 h, dose 10-100 µM. The class given is cell-based.
Data set [9] is described as follows: Selectivity index, ratio of IC50 for cytotoxicity against human HFF-1 cells to IC50 for cytotoxicity against human MCF7 cells measured after 24 hrs by MTT assay. Particulars: HFF-1 cells and MCF7 cells, read-out: Selectivity Index. The class given is toxicity, cell-based.
For data set [10], the system named is MCF7. The experiment in a line: Cytotoxicity against human MCF7 cells assessed as reduction in cell metabolic activity at 100 uM incubated for 24 hrs by MTT assay relative to control. On the set-up: scale not given: the % may be the effect or the level left. The format is functional.
In data set [11] the test system is MCF7. The experiment in a line: Cytotoxicity against human MCF7 cells assessed as reduction in cell metabolic activity incubated for 72 hrs by MTT assay. The class given is functional, cell-based.
Data set [12] concerns MCF7. The experiment in a line: Cytotoxicity against human MCF7 cells assessed as fold increase in release of LDH at 50 uM measured after 24 hrs by lactate dehydrogenase assay relative to control. The class given is functional.
Data set [13] deals with MCF7. The experiment in a line: Induction of apoptosis in human MCF7 cells assessed as cells in apoptotic stage at 100 uM measured after 24 hrs by Annexin V-APC/PI staining based flow cytometry analysis (Rvb= 7.3%). The class given is functional.
For data set [14], the system named is MCF7. The experiment in a line: Induction of apoptosis in human MCF7 cells assessed as cells in apoptotic stage at 250 uM measured after 24 hrs by Annexin V-APC/PI staining based flow cytometry analysis (Rvb= 7.3%). The class given is functional. In general terms: In flow cytometry, cells or beads pass a laser one at a time.
In data set [15] the test system is MCF7. The experiment in a line: Induction of apoptosis in human MCF7 cells assessed as increase in necrotic cells at 10 to 250 uM measured after 24 hrs by Annexin V-APC/PI staining based flow cytometry analysis relative to control. The format is functional, cell-based. The following applies: dose 10-250 µM.
In data set [16] the test system is MCF7. The experiment in a line: Cell cycle arrest in human MCF7 cells assessed as reduction in cells in S phase measured after 72 hrs by propidium iodide staining based flow cytometry analysis. The format is functional.
Data set [17] has as its system MCF7. The experiment in a line: Cell cycle arrest in human MCF7 cells assessed as increase in cells in G1 phase measured after 72 hrs by propidium iodide staining based flow cytometry analysis. The class given is functional.
The subject of data set [18] is HFF-1. The experiment in a line: Cytotoxicity against human HFF-1 clls assessed as reduction in cell viability at 250 uM measured after 72 hrs by MTT assay. The class given is cell-based. Particulars: hff-1, 72 h.
Data set [19] can be described thus: Selectivity index, ratio of IC50 for cytotoxicity against human HFF-1 cells to IC50 for cytotoxicity against human MCF7 cells measured after 48 hrs by MTT assay. Particulars: HFF-1 cells and MCF7 cells, read-out: Selectivity Index. The class given is toxicity, cell-based.
Data set [20] in a line: Selectivity index, ratio of IC50 for cytotoxicity against human HFF-1 cells to IC50 for cytotoxicity against human MCF7 cells measured after 72 hrs by MTT assay. The format is toxicity, cell-based. The following applies: HFF-1 cells and MCF7 cells, read-out: Selectivity Index.
In data set [21] the target is T1, Aromatase. The experiment in a line: Inhibition of human aromatase in T47D measured after 24 hrs by ELISA. A general note: ELISA stands for enzyme-linked immunosorbent assay.

The source made the active and inactive calls. The rule behind the calls is not given here. Some results are limits rather than exact numbers.

For orientation: inhibition means the drop in the measured response relative to a control, in per cent. On to `N#Cc1ccc(S(=O)(=O)Nc2ccc(/N=N/c3ccccc3)cc2)c(Cl)c1`, for which, in data set [1], the inhibition at 1 µM was < 20%.
The term IC50 denotes the concentration that gives 50% inhibition. As for `COc1ccc(S(=O)(=O)N(Cc2nc3ccccc3[nH]2)c2ccc(/N=N/c3ccccc3)cc2)c(OC)c1`, in [1], the inhibition at 1 µM is 50%. Besides, in [2], the IC50 is 5.7 µM. Besides, the “Ratio IC50” value in data set [3] is 14. The Activity in data set [4] was 20%; in data set [6], 60%; in data set [7], 134.2%; in data set [8], “Non-Toxic”. The result in data set [5] was inactive. Besides, the selectivity ratio at 24 h in data set [9] was > 2.25.
As for `O=S(=O)(c1ccccc1)N(Cc1nc2ccccc2[nH]1)c1ccc(/N=N/c2ccccc2)cc1`, in data set [1], the inhibition at 1 µM is < 20%.
The same measure, in the same setting: the same measure for `O=S(=O)(Nc1ccc(/N=N/c2ccccc2)cc1)c1ccccc1`: < 20%.
With `Oc1ccc(/C=C/c2cc(O)cc(O)c2)cc1` [RESVERATROL], the results for the Activity in data set [10] and in data set [11] were 78.2% and “Dose-Dependent Effect”, respectively. Also, the result in data set [5] was inactive.
As to `N#Cc1ccc(S(=O)(=O)Nc2ccc(/N=N/c3ccccc3)cc2)cc1`, the IC50 in data set [2] is 7.9 µM. The Activity in data set [4] was 20%; in [6], 60%; in data set [11], “Dose-Dependent Effect”; in [8], “Non-Toxic”. Moreover, in [5], the outcome was inactive. The selectivity ratio at 24 h in data set [9] was > 1.6.
Consider `COc1ccc(S(=O)(=O)Nc2ccc(/N=N/c3ccccc3)cc2)c(OC)c1`, for which, in data set [2], the IC50 was 1.6 µM. Besides, the “Ratio IC50” value in data set [3] was found to be 50. The Activity in data set [4] was 20%; in [10], 47.4%; in [13] it was 19.7%; in [14], 14.7%; in [6] it was 60%; in data set [11], “Dose-Dependent Effect”. Besides, the Activity result was “Dose-Dependent Effect” in data set [16], “Dose-Dependent Effect” in data set [17], “Non-Toxic” in data set [8] and “Toxic” in data set [18]. In addition, the “fold change (FC)” value in data set [12] is given as 2.5. Further, the result in [15] was Active. Moreover, the selectivity ratio at 24 h in [9] worked out at 2.12. For the same compound, the selectivity ratio at 48 h in [19] was 3.19. The selectivity ratio at 72 h in [20] was found to be 3.74.
Consider `Cc1ccc(S(=O)(=O)N(Cc2nc3ccccc3[nH]2)c2ccc(/N=N/c3ccccc3)cc2)cc1[N+](=O)[O-]`, for which the inhibition at 1 µM in [1] is < 20%.
Still for that read-out and setting: as for `O=[N+]([O-])c1cccc(S(=O)(=O)Nc2ccc(/N=N/c3ccccc3)cc2)c1`, the figure is < 20%; as for `CC(=O)Nc1ccc(S(=O)(=O)Nc2ccc(/N=N/c3ccccc3)cc2)cc1`, < 20%.
As for `COc1cnc(NS(=O)(=O)c2ccc(N/C=C\C(=O)c3cc4ccccc4oc3=O)cc2)nc1`, in [21], the IC50 worked out at 6 µM.
As to `O=S(=O)(Nc1ccc(/N=N/c2ccccc2)cc1)c1ccc(Cl)s1`, the inhibition at 1 µM in [1] was < 20%.
Regarding `CS(=O)(=O)Nc1ccc(/N=N/c2ccccc2)cc1`, the inhibition at 1 µM in data set [1] is < 20%.
Same read-out and setting: as for `CCS(=O)(=O)Nc1ccc(/N=N/c2ccccc2)cc1`, the figure is < 20%; as for `Cc1ccc(S(=O)(=O)Nc2ccc(/N=N/c3ccccc3)cc2)cc1[N+](=O)[O-]`, < 20%; as for `O=S(=O)(Cc1ccccc1)Nc1ccc(/N=N/c2ccccc2)cc1`, < 20%.
